Molecular target: T1, S1P5 (Homo sapiens, UniProt Q9H228)
T1 construct: expressed in transfected cells
Experiment: GTPγS binding assay, S1P5
Type: biochemical
Settings: CHO cells expressing S1P5
Source text: The human S1P5 (GI: 30171332 or GenBank™ accession number AY262689, TREMBL: Q9H228) is cloned by a PCR based method. Lung and spleen cDNA (marathon cDNA) is obtained from BD Biosciences Chlontech (BD Biosciences Chlontech, Palo Alto, Calif. 94303, USA); genomic DNA is isolated from HeLa cells using standard procedures. Following oligonucleotides are used for the PCR reaction: forward primer CACCATGGAGTCGGGGCTGCTGCG (−4 to 20, GenBank™ accession number AY262689) and reverse primer 5′-TCAGTCTGCAGCCGGTTCTGATACCAGAGTC (1197 to 1131, AY262689), the initiation of the translation (ATG) and the stop codon are underlined. The PCR is performed In the presence of 0.2-0.4 μg cDNA, 1× reaction buffer (10× PfuTurbo DNA polymerase buffer, Stratagene, La Jolla, Calif. 92037, USA), 0.5 μM primers, 0.25 mM dNTP's and 2.5 units PfuTurbo DNA polymerase (Stratagene), a first step at 95° C. for 2 min, 30 cycles (30 sec at 95° C., 30 sec at 60° C. and 90 sec at 72° C.) and final step of 10 min at 72° C. The amplified product of around 1100 bp is analyzed by standard agarose gel-electrophoresis. […]
Membrane proteins are prepared from wild type CHO-K1 and the CHO cell clones expressing human S1P4. […] The protein concentration is determined using the Bio Rad Protein Assay and human IgG as standard. […]

T1 sequence (Q9H228 whole entry): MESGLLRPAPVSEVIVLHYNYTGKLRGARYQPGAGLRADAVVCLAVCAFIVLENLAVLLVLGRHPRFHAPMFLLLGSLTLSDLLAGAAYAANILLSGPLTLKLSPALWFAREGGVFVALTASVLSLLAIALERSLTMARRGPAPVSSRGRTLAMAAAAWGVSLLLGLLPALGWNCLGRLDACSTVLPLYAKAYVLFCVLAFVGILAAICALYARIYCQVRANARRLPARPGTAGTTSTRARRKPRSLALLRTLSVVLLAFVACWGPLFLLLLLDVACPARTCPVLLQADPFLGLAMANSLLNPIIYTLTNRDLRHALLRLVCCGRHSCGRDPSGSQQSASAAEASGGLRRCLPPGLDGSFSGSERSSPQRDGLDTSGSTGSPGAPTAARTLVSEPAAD

In the case of NC(CNC(=O)c1cc2c(-c3ccccc3Cc3ccccc3)cccc2[nH]1)C(=O)O (stereo not shown) [Example 2], the EC50 is reported as over 10 µM.
